In this test the target is EP4 (Homo sapiens, UniProt P35408). In words: TANGO assay (EP4/β-arrestin2 interaction). It counts as cell-based. The arrangement: tTA transcription factor (C); expressed in transfected cells; host or cells: CHO-K1. How it is done: TANGO assay was performed as described previously with some modification. Briefly, CHO-K1 cells were co-transfected with plasmids of EP4-TANGO, β-arrestin-TEV and tTA-luc at a ratio of 0.5:1:1. After 4 h, transfected cells were seeded into 96-well plates and cultured overnight. Then, cells were starved for 5 h and treated with different concentrations of compounds. After incubation for 16 h, cells were lysed and the luciferase activities were determined using Dual-Luciferase Reporter Assay Kit (Promega, Madison, WI, USA).
EP4, sequence (P35408 whole entry): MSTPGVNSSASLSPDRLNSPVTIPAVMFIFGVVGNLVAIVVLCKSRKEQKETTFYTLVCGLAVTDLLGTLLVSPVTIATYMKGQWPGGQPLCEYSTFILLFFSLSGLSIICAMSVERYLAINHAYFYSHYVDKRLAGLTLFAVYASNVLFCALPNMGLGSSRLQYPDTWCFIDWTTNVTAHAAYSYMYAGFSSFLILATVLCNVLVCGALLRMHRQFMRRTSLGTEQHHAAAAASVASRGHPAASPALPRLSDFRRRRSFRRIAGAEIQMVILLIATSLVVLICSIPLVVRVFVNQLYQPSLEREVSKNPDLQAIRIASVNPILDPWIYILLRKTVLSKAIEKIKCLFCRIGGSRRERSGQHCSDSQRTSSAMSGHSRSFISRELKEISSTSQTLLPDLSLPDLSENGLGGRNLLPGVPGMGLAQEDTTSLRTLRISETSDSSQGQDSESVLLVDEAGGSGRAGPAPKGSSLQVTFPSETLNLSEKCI

SMILES strings stand for the structures.

Regarding `C[C@H](NC(=O)c1c(Cc2cccc(C(F)(F)F)c2)sc2c1CCOC2)c1ccc(C(=O)O)cc1` [L001], the IC50 is 0.16 ± 0.03 nM.

For the origin of these results see publication PMC8879074, “A Novel Small Molecular Prostaglandin Receptor EP4 Antagonist, L001, Suppresses Pancreatic Cancer Metastasis” (Molecules, 2022).
